Results as given in PMC10291556 (Journal of Medicinal Chemistry, 2023).

How the values were obtained:
MRC-5 = test: MTT assay in non-cancerous fibroblasts, 72 h; type: cell-based; settings: non-cancerous human fibroblasts, 72 h incubation, mean ± SD
Description: Cells were treated with the tested compounds in a final volume of 200 μL/well. […] Calbiochem, Darmstadt, Germany) was added, and the cells were incubated for an additional 2–4 h. The medium was removed, and the insoluble formazan product was dissolved in 100 μL/well DMSO. […] The read values were converted to the percentage of control. […] All experiments were made in triplicate.

HeLa cells [1] = test: Cellular accumulation of platinum (ICP-MS); type: cell-based, human; settings: for cellular uptake 0.1 μM/24 h: 0.1 μM complex; for cellular uptake 1 μM/6 h: 1 μM complex; for cellular uptake 10 μM/6 h: 10 μM complex; for cellular uptake relative to Pt(IV) complex 2: Table 3
Description: Briefly, 3 × 10^6 cells were seeded in 100 mm culture dishes and grown overnight. The cells were exposed to the tested complexes at indicated concentrations for indicated periods. […] The pellets were digested using the microwave acid (HCl) digestion system (CEM Mars). The platinum quantity taken up by the cells was determined by inductively coupled plasma mass spectrometry (ICP–MS). All experiments were performed in triplicate.

[2] = Partition coefficient, shake-flask method; type: physicochemical; settings: octanol/water
Description: The “shake flask” method was used to measure the partition coefficients (P) of platinum compounds. The compounds were dissolved in octanol-saturated water (OSW) containing 200 mM NaCl. […] After careful separation of the layers with a fine-tip pipet, the Pt content in individual phases was determined by flameless atomic absorption spectrometry. The partition coefficients were calculated as the concentration ratio of the compound in the octanol layer to that in the aqueous layer, log P = log([Pt]WSO/[Pt]OSW).

[3] = tested on: DNA isolated from HeLa cells; test: Pt associated with DNA isolated from treated HeLa cells; type: cell-based, human; settings: 1 µM compound, 6 h, mean ± SD
Excerpt: page 16: Table S1: […] concentration of tested compounds for 6 ha. […] Figure S19: A. Representative histograms obtained by flow cytometric analysis of calreticulin exposure in HeLa cells treated with indicated compounds. B. An example of gating DAPI negative population. Only DAPI-negative cells were taken for the evaluation.

HeLa cells [4] = test: Lactate production; type: cell-based, human; settings: 6 h, 5× IC50, free DCF at concentrations 380–770 times higher
Description: HeLa cells were seeded (1 × 10^5 cells/well) and grown in 12-well plates, treated with platinum agents, and diclofenac for 6 h. Lactate concentration in the culture medium was measured using a colorimetric Lactate Assay Kit (Sigma-Aldrich) following the manufacturer’s instructions. […] The amount of lactate in individual samples was determined from a standard curve and expressed as a percentage of non-treated control.

HeLa cells [5] = test: Glucose consumption; type: cell-based, human; settings: 24 h, IC50 concentrations
Description: Figure 3 (A) Lactate production. Relative lactate concentration in medium following a 6 h treatment of HeLa cells with the investigated compounds at concentrations corresponding to 5× IC50. […] Data represents mean ± SD, n = 2–4; asterisks indicate a statistically significant difference from the untreated control (*p < 0.01, **p < 0.005, ***, ***p < 0.001).
Glucose concentration in the culture medium prior to and after the treatment was determined with an Amplex Red Glucose/Glucose Oxidase Assay Kit (Invitrogen) following the producer’s protocol. Glucose consumption was normalized to final cell counts. The glucose amount consumed by the non-treated control was taken at 100%.

HeLa cells [6] = test: Mitochondrial membrane potential (TMRE, flow cytometry); type: cell-based, human; settings: 10× IC50, 1 h, vs untreated control
Description: Figure 4 Changes in the mitochondrial membrane potential Δψm in HeLa cells. The cells were treated with Pt compounds at the concentrations corresponding to 10× IC50 for 1 h and subsequently stained with TMRE. The fluorescence was measured by flow cytometry. Data represents mean ± SD from three independent experiments, *p < 0.01.
HeLa cells were seeded (6-well plates, 3 × 10^5 cells/well), grown overnight, and then treated with the tested compounds for 1 h. The medium was removed, and a fresh medium containing TMRE (Thermo Fisher Scientific) at a final concentration of […] in 500 μL was added. The cells were incubated for 30 min at 37 °C and then harvested using trypsin. TMRE fluorescence was measured with a fluorescence-activated cell sorting (FACS) Verse flow cytometer (Becton Dickinson), and the data were analyzed using the ModFit LT 4.1 (Verity Software House) software. The experiment was performed in triplicate.

COX in HeLa cells = test: COX activity assay (kit) in treated cells; type: cell-based, human; settings: 24 h, 1× IC50,72h, vs untreated control
Description: The results are expressed relative to the COX activity of untreated control.
HeLa cells were seeded in 6-well plates at a density of 10^5 cells/well and incubated overnight. The cells were treated with the tested compounds at concentrations corresponding to 1× IC50. Following a 24 h treatment, the cells were lyzed with radioimmunoprecipitation assay (RIPA) buffer supplemented with proteinase inhibitors on ice for 10 min. The extracts were cleared with centrifugation (12,000g/5 min), and protein content was determined using Bradford assay. COX activity was determined with a COX Activity Assay Kit (Abcam). 6 μg of protein was used in the reaction. The experiment was set up according to the manufacturer’s instructions. The fluorescence (Ex/Em 535/587 nm) was read in a kinetic mode, and the COX inhibition was expressed as a percentage of the activity of the untreated control.

HeLa cells [7] = test: Wound healing assay; type: cell-based, human; settings: 24 h, multiples of IC50,72h
Description: Figure 7 (A–E) Wound healing assay. The monolayer of HeLa cells was scratched with a 10 μL tip, and a starving medium containing the tested complexes was added. The shots were taken at times 0 and 24 h. (A) Control, non-treated cells; (B) cells treated with complex 3; (C) cells treated with complex 4. […] (E) Evaluation of wound healing assay. Bars represent gap size vs. Control (100%), following a 24 h incubation with the investigated compounds. Light gray bars: complex 3; dark gray bars: complex 4; black bar: complex 2. (F) Re-adhesion assay. […] Following trypsinization, the cells were resuspended in Dulbecco’s modified Eagle medium (DMEM), counted, left to reconstitute adhesive membrane proteins for 30 min, and re-seeded at the density of 3× 10^4 cells/100 μL/well. After 30 min of incubation at 37 °C, the re-adhesion activity was determined as described in the Experimental Section. Data represents mean ± SD, n = 8; *p < 0.05, **p < 0.01, ***p < 0.001.
HeLa cells were grown close to confluence in 6-well plates in a complete medium, and then the medium was replaced with a serum-free medium [supplemented with 0.1% bovine serum albumin (BSA)], and the cells were incubated for an additional 24 h. The HeLa monolayers were scratched with a 10 μL pipet tip, and the cells were washed twice with PBS to remove peeled cells and treated with tested compounds at indicated concentrations. The scratched areas were shot immediately after the complex addition and then after 24 h with a Canon EOS 1200D camera attached to an Olympus CKX41 inverted microscope with a 10×/0.25 phase contrast objective. Digital images were taken by the QuickPHOTO MICRO 3.1 program (PROMICRA, Prague, Czech Republic) and processed with the TScratch analysis software (ETH Zürich, Switzerland). The cell’s ability to migrate into the open area was expressed as a percentage of control.

Compound	IC50 (MRC-5) [nM]	cellular uptake 0.1 μM/24 h (HeLa cells [1]) [ng Pt/10^6 cells]	cellular uptake 1 μM/6 h (HeLa cells [1]) [ng Pt/10^6 cells]	cellular uptake 10 μM/6 h (HeLa cells [1]) [ng Pt/10^6 cells]	cellular uptake relative to Pt(IV) complex 2 (HeLa cells [1])	log P [2]	amount of Pt associated with DNA [3] [pg Pt/µg DNA]	lactate excreted into media (HeLa cells [4])	glucose consumption (HeLa cells [5])	mitochondrial membrane potential Δψm (TMRE fluorescence) (HeLa cells [6])	inhibition of COX activity (COX in HeLa cells)	migration activity (wound closing) (HeLa cells [7])
Cc1c(C)c2c3c4c1=CC=C[N]4[Pt]([Cl])[N]3C=CC=2.NCCNC(=O)Cc1ccccc1Nc1c(Cl)cccc1Cl.N[C@H]1CCCC[C@@H]1N [complex 3, Pt(IV)56MESSenDCFCl]	700 ± 100	3.6 ± 0.2	9.6 ± 0.8	61 ± 8	1.3–1.6 fold	–1.7 ± 0.1	2.3 ± 0.2	considerably reduced	reduction in glucose consumption	significant (p < 0.01) decrease in TMRE fluorescence	slightly but significantly inhibited COX-2 activity	reduced the ability of HeLa cells to close artificial wounds
Cc1c(C)c2c3c4c1=CC=C[N]4[Pt][N]3C=CC=2.NCCNC(=O)Cc1ccccc1Nc1c(Cl)cccc1Cl.NCCNC(=O)Cc1ccccc1Nc1c(Cl)cccc1Cl.N[C@H]1CCCC[C@@H]1N [complex 4, Pt^IV56MeSS(DCF)2]	320 ± 80	3.9 ± 0.3	11 ± 2	82 ± 7	1.7–1.8 fold	–1.4 ± 0.1	4.6 ± 0.3	considerably reduced	reduction in glucose consumption	significant (p < 0.01) decrease in TMRE fluorescence	slightly but significantly inhibited COX-2 activity	reduced the ability of HeLa cells to close artificial wounds
